The values that follow are results of earlier work, collected in article PMC8875686, “Oral Formulation Based on Irbesartan Nanocrystals Improve Drug Solubility, Absorbability, and Efficacy” (Pharmaceutics, 2022).

The structures appear in SMILES notation. In brackets after ≈: the same amount, converted by molar mass.

For data set [1] the following is noted: room temperature.
For data set [2] the following is noted: oral administration.

Consider `CCCCC1=NC2(CCCC2)C(=O)N1Cc1ccc(-c2ccccc2-c2nnn[nH]2)cc1` [form B], for which the solubility in data set [1] was ~0.6 µg/mL (≈ 1.4 µM).

Consider `CCCCC1=NC2(CCCC2)C(=O)N1Cc1ccc(-c2ccccc2-c2nnn[nH]2)cc1` [IRB, Irbesartan], for which, in data set [2], the “average absolute bioavailability (BA)” value is 60–80% and the “time of Cmax (peak plasma concentrations)” value is 1.5 to 2 h.

For the molecule `CCCCC1=NC2(CCCC2)C(=O)N1Cc1ccc(-c2ccccc2-c2nnn[nH]2)cc1` [form A], in data set [1], the solubility entry was “approximately 0.011 mg/mL”.

By solubility is commonly meant how much of the substance goes into solution per volume.
